From patent US8476064B2, “Inhibition assay method and device for detection of antibiotics” (Charm Sciences, Inc., priority 2006, dated 2013)
Blank lines part the entries; values can stand above or below the compound they belong to.

Legend:
B.st. spores [1] = assay: Single service kidney swab microbial growth inhibition test, culture of Example 1, with or without beta-lactam receptor; format: cell-based, Bacillus (Geobacillus) Stearothermophilus; conditions: for test result With receptor: with 1 U receptor
Protocol: A Bromocresol purple (BCP)/Tris Solution was prepared by combining 25 mL of a Trizma Base solution (TBS), the solution including 2.5 grams Trizma Base in 100 mL of reverse osmosis/deionized water (RO/DI Water), with 100 milligrams of BCP and mixing well. The media was prepared by dissolving 5 grams glucose and 1 gram Mueller Hinton Broth (Mueller Hinton broth includes, in purified filtered water, 2 grams per liter (g/L) beef extract, 17.5 g/L casein hydrolysate acid and 1.5 g/L starch, pH 7.3 at 25 degrees C) into 100 mL RO/DI Water. Then a 0.01 mg/mL solution of trimethoprim in RO/DI Water was prepared and 1.2 mL was added to the media. Next 20 mL of BCP/Tris (sterile filtered through 0.45 micron filter) was added to the media.
(§1) Agar was prepared by combining 0.3 grams Difco Bacto-Agar (Item #0140-01), 0.225 NaCl and 17.485 RO/DI Water. The mixture was heated to 95° C. and then removed from the heat and allowed to cool to 75° C. Next 6 mL of media (prepared as described above with BCP/Tris) was added to the agar and mixed for 5 minutes. The mixture was cooled to 57° C. and 1 mL spore solution (concentration of 1 billion cfu/mL) was added and mixed together for 5 minutes. 0.200 mL was dispensed into the bottom of a vial 4.
The dispensed vial 4 was prepared as described in example 1. An extractant was prepared by adding 4.8 grams of 47.2% Trizma Base and 52.5% Potassium Phosphate Monobasic to 1000 mL RO/DI Water (pH should be 7.5+/−0.10). The extractant was sealed within the niblet 5 and the niblet was added to the vial 4. The vial 4 was heat sealed with foil.
The single service kidney swab procedure was run by first making a 3 inch incision into kidney. The swab 1 was then withdrawn from the test unit, the test unit in the form of a POCKETSWAB, by gently pulling and twisting the handle 2 out of the test unit body 7. The swab 1 was then inserted into the incision of the kidney and allowed to sit for 15 minutes to allow full absorption of liquid into the swab 1. The swab 1 was reinserted by gently pushing down and twisting to engage the threads 6 and screwing the handle down slowly about halfway. The swab tip 3 punctured the seals 12, 13 & 14 immersing the swab tip 3 into the extractant within the niblet 5 where it sat for 2 minutes. The swab 1 was then screwed down all the way. After shaking and tapping the vial 4 to get residual liquid into the bottom of the vial 4 and in contact with the culture 15, we placed the vial 4 into a heat block set at 67° C. and incubated for 2.5 hours (if urine is tested instead of kidney, incubate for 4 hours).
Culture is prepared as in Example 1. Prior to dispensing 200 microliters into the vial 4, antibiotic binder is prepared, in this example an antibiotic binder from the cell wall of B.st., also known as receptor. Varying amounts of inhibitory receptor units are mixed into the culture. Receptor is defined as protein removed from cellular membrane of B.st. A receptor unit (1 U) is the amount of receptor that will, in the test, reverse the culture growth inhibition of 12.5 ppb of penicillin G.
Results in Table 1 are from tests using the culture described in Example 1 and with the addition of receptor added into rinse buffer (rinse buffer composition is 4.8 grams of 47.2% Trizma Base and 52.5% Potassium Phosphate Monobasic to 1000 mL RO/DI Water) at 0, 0.3 units (U), 1.0 U, 2.0 U, 5.0 Upper test. Sample contained the following amounts of penicillin G: 0, 5 parts per billion (ppb), 10 ppb, 12.5 ppb, 25 ppb and 50 ppb. As shown, 1.0 U was able to reverse the result of a 12.5 ppb penicillin G sample. Results are either positive (+) or negative (−).
Results are either positive (+), negative (−) or borderline between positive and negative (+/−). Abbreviations are penicillin G (PenG); sulfamethazine (SMZ); sulfadimethoxine (SDM); tylosin (TY); gentamicin (G); oxytetracycline (OT). […]

B.st. spores [2] = assay: Antibiotic detection test in spiked milk, borate/succinate culture of Example 6 (Table 4); format: cell-based, Bacillus (Geobacillus) Stearothermophilus; set-up: key to Color 1 / Color 2: Color result 1 and 2 is a negative result; Color result 1 and 2 is a negative result; 3 is a borderline result; 4 and 5 is a positive result; 4 and 5 is a positive result; conditions: for % Pos (Color 2) / Color 2: after 16 hours at room temperature; for % Pos (Color 1) / Color 1: immediately after test completion
Protocol: BCP/Borate/Succinate Solution was prepared by adding 3.8 grams of Borate and 6 grams Succinate to 100 mL of reverse osmosis/deionized water (RO/DI Water) in 125 mL flask. 50 milligrams of BCP was added to a 50 mL conical tube and 5 mL of Borate/Succinate solution was added to the 50 milligrams BCP and mixed.
To prepare media 5 grams glucose and 1 gram Mueller Hinton Broth was dissolved in 100 mL RO/DI Water. 1.2 mL of a 0.01 mg/mL solution of trimethoprim in RO/DI Water was prepared and added to the media. A 20 mL of BCP/Borate/Succinate was added to the media and the media was sterile filtered through a 0.45 micron filter and then cooled to 4 degrees C.
as §1, with “each of the vials.” for “a vial 4.”
In test operation 200 microliters of various milk sample, spiked with known concentrations of antibiotics, were pipetted into test vials and incubated for the prescribed time (in this test 2 hours 10 minutes) and prescribed temperature (64 degrees C.+/−2 degrees C.). Incubation was in the Charm I Inctronic incubator. Results were recorded immediately after test completion (Color 1) and after being left at room temperature for 16 hours (Color 2). Results listed are in parts per billion (ppb). 4 samples were run at each concentrations except for raw negative milk (16 samples) and 3 ppb pen G (2 samples) and amoxicillin (2 samples). Abbreviations are penicillin G (PenG); sulfamethazine (SMZ); sulfadimethoxine (SDM); tylosin (TY); gentamicin (G); oxytetracycline (OT); pirlimycin (Pirl); amoxicillin (Amox); ampicillin (Amp); cloxacillin (Clox); ceftiofur sodium (Ceft); cephaprin (Ceph); tilmicosin (Til); sulfadoxine (SDN); neomycin (Neo). Color result 1 and 2 is a negative result, 3 is a borderline result and 4 and 5 is a positive result.

[3] = drug concentration 250 (unit not given)
[4] = drug concentration 500 (unit not given)
[5] = drug concentration 750 (unit not given)

Structure (SMILES): CN(C)[C@@H]1C(O)=C(C(N)=O)C(=O)[C@@]2(O)C(O)=C3C(=O)c4c(O)cccc4[C@@](C)(O)[C@H]3[C@H](O)[C@@H]12 [OT, oxytetracycline]
test result w/out receptor (B.st. spores [1]; [3]): + | test result With receptor (B.st. spores [1]; [3]): + | test result w/out receptor (B.st. spores [1]; [4]): + | test result With receptor (B.st. spores [1]; [4]): + | test result w/out receptor (B.st. spores [1]; [5]): + | test result With receptor (B.st. spores [1]; [5]): + | % Pos (Color 2) (B.st. spores [2]; milk spiked at 200 ppb): 0% | Color 2 (B.st. spores [2]; milk spiked at 200 ppb): 2 | % Pos (Color 1) (B.st. spores [2]; milk spiked at 200 ppb): 0% | Color 1 (B.st. spores [2]; milk spiked at 200 ppb): 2 | % Pos (Color 2) (B.st. spores [2]; milk spiked at 300 ppb): 100% | Color 2 (B.st. spores [2]; milk spiked at 300 ppb): 4 | % Pos (Color 1) (B.st. spores [2]; milk spiked at 300 ppb): 100% | Color 1 (B.st. spores [2]; milk spiked at 300 ppb): 5

test result (B.st. spores [1]; 12.5 ppb penicillin G, Control - no receptor): + | test result (B.st. spores [1]; 12.5 ppb penicillin G, Receptor added to buffer): − | test result (B.st. spores [1]; 12.5 ppb penicillin G, Receptor added to culture surface): − | test result (B.st. spores [1]; 12.5 ppb penicillin G, Receptor mixed in culture): − | test result (B.st. spores [1]; 50 ppb penicillin G, Control - no receptor): + | test result (B.st. spores [1]; 50 ppb penicillin G, Receptor added dried on swab): + | test result (B.st. spores [1]; 50 ppb penicillin G, Receptor added to buffer): + | test result (B.st. spores [1]; 50 ppb penicillin G, Receptor added to culture surface): + | test sensitivity to penicillin G (B.st. spores [1]; beta-lactam receptor 0.3 units to 5.0 units added to the top of the culture): reduced by varying amounts | test result w/out receptor (B.st. spores [1]; drug 12.5 ppb): + | test result With receptor (B.st. spores [1]; drug 12.5 ppb): − | test result w/out receptor (B.st. spores [1]; drug 25 ppb): + | test result With receptor (B.st. spores [1]; drug 25 ppb): + | test result (B.st. spores [1]; penicillin G 5 ppb in sample, receptor 0 U per test in rinse buffer): + | test result (B.st. spores [1]; penicillin G 5 ppb in sample, receptor 0.3 U per test in rinse buffer): − | test result (B.st. spores [1]; penicillin G 5 ppb in sample, receptor 1.0 U per test in rinse buffer): − | test result (B.st. spores [1]; penicillin G 5 ppb in sample, receptor 2.0 U per test in rinse buffer): − | test result (B.st. spores [1]; penicillin G 5 ppb in sample, receptor 5.0 U per test in rinse buffer): − | test result (B.st. spores [1]; penicillin G 10 ppb in sample, receptor 0 U per test in rinse buffer): + | test result (B.st. spores [1]; penicillin G 10 ppb in sample, receptor 0.3 U per test in rinse buffer): − | test result (B.st. spores [1]; penicillin G 10 ppb in sample, receptor 1.0 U per test in rinse buffer): − | test result (B.st. spores [1]; penicillin G 10 ppb in sample, receptor 2.0 U per test in rinse buffer): − | test result (B.st. spores [1]; penicillin G 10 ppb in sample, receptor 5.0 U per test in rinse buffer): − | test result (B.st. spores [1]; penicillin G 12.5 ppb in sample, receptor 0 U per test in rinse buffer): + | test result (B.st. spores [1]; penicillin G 12.5 ppb in sample, receptor 0.3 U per test in rinse buffer): + | test result (B.st. spores [1]; penicillin G 12.5 ppb in sample, receptor 1.0 U per test in rinse buffer): − | test result (B.st. spores [1]; penicillin G 12.5 ppb in sample, receptor 2.0 U per test in rinse buffer): − | test result (B.st. spores [1]; penicillin G 12.5 ppb in sample, receptor 5.0 U per test in rinse buffer): − | test result (B.st. spores [1]; penicillin G 25 ppb in sample, receptor 0 U per test in rinse buffer): + | test result (B.st. spores [1]; penicillin G 25 ppb in sample, receptor 0.3 U per test in rinse buffer): + | test result (B.st. spores [1]; penicillin G 25 ppb in sample, receptor 1.0 U per test in rinse buffer): + | test result (B.st. spores [1]; penicillin G 25 ppb in sample, receptor 2.0 U per test in rinse buffer): + | test result (B.st. spores [1]; penicillin G 25 ppb in sample, receptor 5.0 U per test in rinse buffer): + | test result (B.st. spores [1]; penicillin G 50 ppb in sample, receptor 0 U per test in rinse buffer): + | test result (B.st. spores [1]; penicillin G 50 ppb in sample, receptor 0.3 U per test in rinse buffer): + | test result (B.st. spores [1]; penicillin G 50 ppb in sample, receptor 1.0 U per test in rinse buffer): + | test result (B.st. spores [1]; penicillin G 50 ppb in sample, receptor 2.0 U per test in rinse buffer): + | test result (B.st. spores [1]; penicillin G 50 ppb in sample, receptor 5.0 U per test in rinse buffer): +
Structure (SMILES): CC1(C)S[C@@H]2[C@H](NC(=O)Cc3ccccc3)C(=O)N2[C@H]1C(=O)O [PenG, penicillin G]
% Pos (Color 2) (B.st. spores [2]; milk spiked at 3 ppb): 100% | Color 2 (B.st. spores [2]; milk spiked at 3 ppb): 5 | % Pos (Color 1) (B.st. spores [2]; milk spiked at 3 ppb): 100% | Color 1 (B.st. spores [2]; milk spiked at 3 ppb): 5 | % Pos (Color 2) (B.st. spores [2]; milk spiked at 4 ppb): 100% | Color 2 (B.st. spores [2]; milk spiked at 4 ppb): 5 | % Pos (Color 1) (B.st. spores [2]; milk spiked at 4 ppb): 100% | Color 1 (B.st. spores [2]; milk spiked at 4 ppb): 5

Structure (SMILES): COc1cc(NS(=O)(=O)c2ccc(N)cc2)nc(OC)n1 [SDM, sulfadimethoxine]
test result w/out receptor (B.st. spores [1]; drug 50 ppb): +/− | test result With receptor (B.st. spores [1]; drug 50 ppb): +/− | test result w/out receptor (B.st. spores [1]; drug 100 ppb): +/− | test result With receptor (B.st. spores [1]; drug 100 ppb): +/− | test result w/out receptor (B.st. spores [1]; drug 200 ppb): + | test result With receptor (B.st. spores [1]; drug 200 ppb): + | % Pos (Color 2) (B.st. spores [2]; milk spiked at 25 ppb): 100% | Color 2 (B.st. spores [2]; milk spiked at 25 ppb): 5 | % Pos (Color 1) (B.st. spores [2]; milk spiked at 25 ppb): 100% | Color 1 (B.st. spores [2]; milk spiked at 25 ppb): 4 | % Pos (Color 2) (B.st. spores [2]; milk spiked at 50 ppb): 100% | Color 2 (B.st. spores [2]; milk spiked at 50 ppb): 5 | % Pos (Color 1) (B.st. spores [2]; milk spiked at 50 ppb): 100% | Color 1 (B.st. spores [2]; milk spiked at 50 ppb): 5

Structure (SMILES): Cc1cc(C)nc(NS(=O)(=O)c2ccc(N)cc2)n1 [SMZ, sulfamethazine]
test result w/out receptor (B.st. spores [1]; drug 50 ppb): − | test result With receptor (B.st. spores [1]; drug 50 ppb): − | test result w/out receptor (B.st. spores [1]; drug 100 ppb): +/− | test result With receptor (B.st. spores [1]; drug 100 ppb): +/− | test result w/out receptor (B.st. spores [1]; drug 200 ppb): +/− | test result With receptor (B.st. spores [1]; drug 200 ppb): +/− | % Pos (Color 2) (B.st. spores [2]; milk spiked at 100 ppb): 100% | Color 2 (B.st. spores [2]; milk spiked at 100 ppb): 5 | % Pos (Color 1) (B.st. spores [2]; milk spiked at 100 ppb): 100% | Color 1 (B.st. spores [2]; milk spiked at 100 ppb): 5 | % Pos (Color 2) (B.st. spores [2]; milk spiked at 200 ppb): 100% | Color 2 (B.st. spores [2]; milk spiked at 200 ppb): 4 | % Pos (Color 1) (B.st. spores [2]; milk spiked at 200 ppb): 100% | Color 1 (B.st. spores [2]; milk spiked at 200 ppb): 5
